# According to PubChem BioAssay (NCI):
#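 Five compound concentrations were applied to cells in 96-well plates for 48 hours; endpoints were derived by simple linear interpolation of the resulting dose-response curve. Here, GI50 denotes the concentration required for 50% inhibition of growth. TGI: concentration producing complete growth inhibition.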 Where a SMILES comes first, the peptide text is derived from it. Bridges are numbered along the chain shown (N, C = ends). Roman numbers before positions name the chains, in order. [ ]: non-standard residue; d: D form. The star is where a group is joined. Quinoxaline2carbonyl = O=C(c1cnc2ccccc2n1)*; NMeV = CN[CH](C(=O)O)C(C)C; NMeC = CN[CH](CS)C(=O)O
# Experiments:
# Experiment in all cases: NCI anticancer screen, dose series, 48 h
# M19-MEL melanoma = test system: M19-MEL melanoma
# RXF-631 renal = test system: RXF-631 renal
# DLD-1 colon = test system: DLD-1 colon
# XF 498 CNS = test system: XF 498 CNS
# HOP-18 NSCLC = test system: HOP-18 NSCLC
# SNB-78 CNS = test system: SNB-78 CNS
# LXFL 529 NSCLC = test system: LXFL 529 NSCLC
# MDA-MB-435 = test system: MDA-MB-435
# MDA-N = test system: MDA-N
SMILES,TGI (M19-MEL melanoma),TGI (DLD-1 colon),GI50 (MDA-MB-435),TGI (MDA-MB-435),further results
CNS(=O)(=O)NNS(=O)(=O)c1ccc(Cl)cc1,> 100 µM,> 100 µM,,,TGI (RXF-631 renal): > 100 µM
c1ccc(P(=Nc2ccccc2N=P(c2ccccc2)(c2ccccc2)c2ccccc2)(c2ccccc2)c2ccccc2)cc1,12.1 µM,13 µM,,,TGI (XF 498 CNS): 0.543 µM; TGI (HOP-18 NSCLC): 0.844 µM; TGI (RXF-631 renal): 6.64 µM; TGI (SNB-78 CNS): 19.9 µM; TGI (LXFL 529 NSCLC): 12.1 µM
COC(CN1C=C(Sc2ccccc2)CC1)OC,97.7 µM,> 100 µM,,,TGI (XF 498 CNS): 66.3 µM; TGI (HOP-18 NSCLC): > 100 µM; TGI (SNB-78 CNS): > 100 µM
O=[N+]([O-])c1cc(S(=O)(=O)Oc2ccccc2)ccc1Cl,,,1640 nM,3.09 µM,
CN(CC(N)=O)C(=O)N(CCCl)N=O,,,,> 100 µM,TGI (MDA-N): > 100 µM
CN1CCN(Cc2ccc(NC(=O)c3[nH]ncc3Nc3ncnc4sc5c(c34)CCCC5)cc2)CC1,,,291 nM,1.71 µM,
CC(C)=CCC/C(C)=C/CC/C(C)=C/CC/C=C(\C)CC/C=C(\C)CCC(=O)Nc1ccn(C2OC(CO)C(O)C2(F)F)c(=O)n1 (stereo not given),,,144 nM,7.58 µM,
COC(=O)CC1NC(=O)C1C1(C)OCCO1 (stereo not given),> 100 µM,> 100 µM,,,TGI (XF 498 CNS): > 100 µM; TGI (LXFL 529 NSCLC): > 100 µM
BrCc1ccc(CBr)cc1,,,5560 nM,15.6 µM,
C[C@@H]1O[C@@H](OC[C@H]2O[C@@H](OCCc3ccc(O)c(O)c3)[C@H](O)[C@@H](O)[C@@H]2OC(=O)/C=C/c2ccc(O)c(O)c2)[C@H](O)[C@H](O)[C@H]1O,,,> 100000 nM,> 100 µM,
COc1ccc(OC)c(C2SCC(=O)N2NC(=O)C(O)c2ccccc2)c1 (stereo not given),,,> 100000 nM,> 100 µM,
CC(C)(C)c1ccc(C(=O)Nc2sc3c(c2C(N)=O)CCC(=O)C3)cc1,,,1670 nM,3.7 µM,
CCn1c2ccccc2c2cc(/C=C(/C#N)C(N)=O)ccc21,,,2530 nM,18.4 µM,
CCN1C(=O)N(CC)C2C1NN=c1s/c(=C3\C(=O)N(CCc4ccccc4)c4ccccc43)c(=O)n12 (stereo not given),,,245 nM,0.684 µM,
CCCCCCN(N)C(=O)CC#N,> 100 µM,> 100 µM,,,TGI (HOP-18 NSCLC): > 100 µM; TGI (RXF-631 renal): > 100 µM; TGI (SNB-78 CNS): > 100 µM; TGI (LXFL 529 NSCLC): > 100 µM
C=C1CCC2[C@@H](CCC3[C@]2(C)CCC[C@]3(C)C(=O)OC)[C@@H]1CC=O (stereo not given in full),49 µM,> 100 µM,,,TGI (XF 498 CNS): 61.6 µM; TGI (HOP-18 NSCLC): 86 µM; GI50 (RXF-631 renal): 44.9 µM; TGI (RXF-631 renal): > 100 µM; TGI (SNB-78 CNS): > 100 µM; TGI (LXFL 529 NSCLC): > 100 µM
Nc1ccccc1SCc1csc(-c2ccc(Cl)cc2)n1,,,,37.8 µM,
Cn1cncc1CC1COC(=O)C1C(O)c1ccccc1 (stereo not given),,,,> 100 µM,TGI (MDA-N): > 100 µM
Cn1c2ccccc2n2c(=O)c3c(c(C#N)c12)CCCC3,> 100 µM,> 100 µM,,,TGI (XF 498 CNS): > 100 µM; TGI (SNB-78 CNS): > 100 µM
COc1ccc(C=O)c(NC(=O)C(C)C)c1,49.5 µM,,,,TGI (XF 498 CNS): 68.9 µM; TGI (HOP-18 NSCLC): 90.6 µM; TGI (SNB-78 CNS): > 100 µM; TGI (LXFL 529 NSCLC): > 100 µM

SMILES,TGI (M19-MEL melanoma),TGI (DLD-1 colon),GI50 (MDA-MB-435),TGI (MDA-MB-435),further results
CC1(C)CCC[C@]2(C)[C@@H](C=O)C(C=O)=CC[C@@H]12,,,,> 100 µM,TGI (MDA-N): 26.4 µM
O=C(NC1CCCC1=O)c1ccccc1 (stereo not given),> 100 µM,> 100 µM,,,TGI (XF 498 CNS): > 100 µM; TGI (RXF-631 renal): > 100 µM; TGI (SNB-78 CNS): > 100 µM
CC1(C)OCC(C(O)C2OC(C)(C)OC2/C=N\O)O1 (stereo not given),> 100 µM,> 100 µM,,,TGI (XF 498 CNS): > 100 µM; TGI (HOP-18 NSCLC): > 100 µM; TGI (SNB-78 CNS): > 100 µM; TGI (LXFL 529 NSCLC): > 100 µM
CC1(C)OC2C(=O)C=C(COCc3ccccc3)C2O1 (stereo not given),,,,71.2 µM,TGI (MDA-N): > 100 µM
CCN(Cc1ccc(Cl)s1)c1ccc(CO)c(Cl)c1,,,20300 nM,59 µM,
CC(C)c1c2[nH]c3ccccc3c2c(C(C)C)c2[nH]c3ccccc3c12,> 100 µM,> 100 µM,,,TGI (XF 498 CNS): > 100 µM; TGI (HOP-18 NSCLC): > 100 µM; TGI (RXF-631 renal): > 100 µM; TGI (SNB-78 CNS): > 100 µM; TGI (LXFL 529 NSCLC): > 100 µM
C[CH2][Pb]([CH2]C)([CH2]C)[O]C(=O)c1ccc2ccccc2n1,,,> 10000 nM,> 10 µM,GI50 (MDA-N): > 10 µM; TGI (MDA-N): > 10 µM
CCCCCCCCCCCCCP(=O)(O)NCC(N)=O,> 100 µM,> 100 µM,,,TGI (XF 498 CNS): > 100 µM; TGI (HOP-18 NSCLC): 86.1 µM; TGI (RXF-631 renal): > 100 µM; TGI (LXFL 529 NSCLC): > 100 µM
O=c1[nH]cnc2c(C3NC(CO)C(O)C3O)c[nH]c12 (stereo not given),,,> 100000 nM,> 100 µM,
O=C1NC(=O)C(c2cccc(Cl)c2)=C1Nc1ccc(O)c(Cl)c1,,,3280 nM,> 25 µM,
COc1cc(/C=C/[N+](=O)[O-])cc(Br)c1OC,,,2330 nM,6.15 µM,
CN(CCCCCl)P(=O)(OCCS(=O)(=O)CC(NC(=O)CCC(N)C(=O)O)C(=O)NC(C(=O)O)c1ccccc1)OCC1OC(n2cc(F)c(=O)[nH]c2=O)CC1O (stereo not given),,,2270 nM,> 100 µM,
CC1(C)N=C(N)N=C(N)N1c1ccc(CCCCc2ccc(S(=O)(=O)F)cc2)c(Cl)c1,,,66.6 nM,16.6 µM,
"CC1NC(=O)C(NC(=O)c2cnc3ccccc3n2)COC(=O)C(C(C)C)N(C)C(=O)C2CSSCC(C(=O)N(C)C(C(C)C)C(=O)OCC(NC(=O)c3cnc4ccccc4n3)C(=O)NC(C)C(=O)N2C)N(C)C1=O (stereo not given) (I: Quinoxaline2carbonyl-SA[NMeC][NMeV] / II: Quinoxaline2carbonyl-SA[NMeC][NMeV]; ester I:1-II:C, I:C-II:1; disulfide I:3-II:3; configuration not given here)",,,,< 0.01 µM,TGI (MDA-N): < 0.01 µM
CC1CN1c1c(C(=O)/C=C/c2ccccc2)c(-c2ccccc2)nn(C)c1=O (stereo not given),35.1 µM,34.5 µM,,,TGI (HOP-18 NSCLC): 71.5 µM; TGI (SNB-78 CNS): 33.7 µM; TGI (LXFL 529 NSCLC): 28.9 µM
Nc1ccc(-c2nc3ccccc3[nH]2)c2ccccc12,,,198 nM,0.812 µM,
COc1ccc2c(c1)OC1=C(C(=O)OC1)C2c1cc(OC)c2c(c1)OCO2 (stereo not given),,,< 12.2 nM,0.0371 µM,
N/N=C1\CC(=O)NC(=O)N1,,,,> 100 µM,TGI (MDA-N): > 100 µM
Fc1cccc(C2SCc3nc4ccccc4n32)c1F (stereo not given),> 100 µM,> 100 µM,,,TGI (HOP-18 NSCLC): > 100 µM; TGI (RXF-631 renal): 36 µM; TGI (SNB-78 CNS): > 100 µM; TGI (LXFL 529 NSCLC): > 100 µM
O=C(Oc1cccnc1)c1ccsc1Nc1ccnc(C(F)(F)F)c1,,,2880 nM,11.8 µM,
